For orientation: IC50 means the concentration that inhibits the measured activity by half.

Like-named read-outs stand apart in the source and are kept apart here.

Common to all, as to type: biochemical
Assay [1] deals with T1, catalytic kinase (JH1) domain of human JAK1 (Homo sapiens, UniProt P23458).
T1 construct: 4 nM of recombinant JAK1 kinase domain is used to phosphorylate
The assay can be described thus: ADP-Glo kinase assay, JAK1 kinase domain. The method, then:
(§1) As summarized in Table 3 below, compounds of the disclosure were assessed for their ability to inhibit TYK2, JAK1, JAK2, and JAK3 activity.
(§2) The kinase activity of recombinantly generated catalytic kinase (also known as JH1) domain of human JAK1, JAK2, JAK3 and TYK2 were evaluated in a plate-based assay using the ADP-Glo™ Kinase Assay platform. […] The reactions proceed for 100 minutes and the catalytic activity is quantified by first depleting the unused ATP, converting the hydrolyzed ADP into ATP to generate luminescence in a luciferase reaction; which is the basis of the ADP-Glo platform. Compounds are tested at either 10 μM or 1 μM top concentration, 11 points of 3-fold dilution. The data is normalized and the percent activity versus log concentration of compound is fitted with a 4-parameter logistic model to generate a curve and an IC50 value.
On the technique in general: ADP-Glo first removes unused ATP, then detects ADP through luciferase.

Assay [2] deals with T2, catalytic kinase (JH1) domain of human JAK2 (Homo sapiens, UniProt O60674).
T2 construct: Catalytic activities of recombinant JAK2, JAK3 and TYK2 kinase domain
The assay can be described thus: ADP-Glo kinase assay, JAK2 kinase domain. The method, then: as §1, §2

The target of assay [3] is T3, catalytic kinase (JH1) domain of human TYK2 (Homo sapiens, UniProt P29597).
T3 construct: recombinantly generated catalytic kinase (also known as JH1) domain of human JAK1, JAK2, JAK3 and TYK2
T3 sequence (P29597 897-1176 limits assumed): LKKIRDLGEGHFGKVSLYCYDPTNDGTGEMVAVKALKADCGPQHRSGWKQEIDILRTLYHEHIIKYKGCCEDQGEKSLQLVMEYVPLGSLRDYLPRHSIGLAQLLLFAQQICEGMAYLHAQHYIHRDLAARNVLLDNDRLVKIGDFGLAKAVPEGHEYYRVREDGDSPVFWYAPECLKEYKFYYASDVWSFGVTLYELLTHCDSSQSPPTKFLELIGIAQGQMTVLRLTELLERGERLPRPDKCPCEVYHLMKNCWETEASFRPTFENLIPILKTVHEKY
The assay can be described thus: ADP-Glo kinase assay, TYK2 kinase domain. The method, then:
as §1, §2

The target of assay [4] is T4, catalytic kinase (JH1) domain of human JAK3 (Homo sapiens, UniProt P52333).
T4 construct: Catalytic activities of recombinant JAK2, JAK3 and TYK2 kinase domain
The assay can be described thus: ADP-Glo kinase assay, JAK3 kinase domain. Here is the method:
as §1, §2

The mark [5] stands for this setting: 4 nM recombinant JAK1 kinase domain, 50 μM JAK3-342 peptide, 35 μM ATP, 100 minutes, read-out: JAK1 biochem IC50 (nM) Mean.
Setting [6] is: 0.2 nM recombinant JAK2 kinase domain, 50 μM JAK3-974 peptide, 15 μM ATP, 100 minutes, read-out: JAK2 biochem IC50 (nM) Mean.
Where [7] appears, read: 2 nM recombinant TYK2 kinase domain, 50 μM JAK3-974 peptide, 10 μM ATP, 100 minutes, read-out: TYK2 biochem IC50 (nM) Mean.
Where [8] appears, read: 0.3 nM recombinant JAK3 kinase domain, 50 μM JAK3-974 peptide, 4 μM ATP, 100 minutes, read-out: JAK3 biochem IC50 (nM) Mean.

T1 sequence (P23458 875-1153 limits assumed): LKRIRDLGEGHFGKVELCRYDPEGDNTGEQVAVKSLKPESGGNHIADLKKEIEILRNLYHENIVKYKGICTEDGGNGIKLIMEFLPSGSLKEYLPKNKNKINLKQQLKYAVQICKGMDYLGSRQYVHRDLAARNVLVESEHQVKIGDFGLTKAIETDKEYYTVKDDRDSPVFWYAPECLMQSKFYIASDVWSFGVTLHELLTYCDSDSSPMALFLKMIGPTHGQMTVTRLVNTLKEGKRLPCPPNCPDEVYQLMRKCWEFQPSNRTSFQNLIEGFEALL
T2 sequence (O60674 849-1124 limits assumed): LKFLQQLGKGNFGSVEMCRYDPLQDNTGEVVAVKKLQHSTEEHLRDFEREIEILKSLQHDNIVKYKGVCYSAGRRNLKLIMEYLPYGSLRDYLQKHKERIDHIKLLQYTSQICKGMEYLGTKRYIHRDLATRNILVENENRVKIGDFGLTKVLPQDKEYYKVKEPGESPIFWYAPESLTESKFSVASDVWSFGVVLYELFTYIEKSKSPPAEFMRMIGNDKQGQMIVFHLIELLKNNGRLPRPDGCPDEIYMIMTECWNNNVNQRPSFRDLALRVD
T4 sequence (P52333 822-1111 limits assumed): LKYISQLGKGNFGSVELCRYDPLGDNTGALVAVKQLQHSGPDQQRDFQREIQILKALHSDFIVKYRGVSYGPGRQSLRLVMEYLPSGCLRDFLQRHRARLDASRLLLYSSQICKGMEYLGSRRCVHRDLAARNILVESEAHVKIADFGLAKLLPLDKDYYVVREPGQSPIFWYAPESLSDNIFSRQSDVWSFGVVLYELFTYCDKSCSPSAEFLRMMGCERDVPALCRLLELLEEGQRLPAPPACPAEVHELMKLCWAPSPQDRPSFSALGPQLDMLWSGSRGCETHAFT

As for `Cn1cc(-c2cc3c(N4CC5CCC(C4)N5[C@H]4C[C@H](O)C4)ccnn3c2)cn1` [Example 31, (1R,3r)-3-(3-(6-(1-methyl-1H-pyrazol-4-yl)pyrrolo[1,2-b]pyridazin-4-yl)-3,8-diazabicyclo[3.2.1]octan-8-yl)cyclobutan-1-ol], the IC50 is 9200 nM in assay [1] (setting [5]), 4000 nM in assay [2] (setting [6]), 205 nM in assay [3] (setting [7]) and over 10000 nM in assay [4] (setting [8]).

Regarding `Cn1cc(-c2cc3c(N4CC5CCC(C4)N5[C@H]4C[C@@H](O)C4)ccnn3c2)cn1` [Example 32, (1S,3s)-3-(3-(6-(1-methyl-1H-pyrazol-4-yl)pyrrolo[1,2-b]pyridazin-4-yl)-3,8-diazabicyclo[3.2.1]octan-8-yl)cyclobutan-1-ol], the IC50 in assay [1] (setting [5]) is over 10000 nM; in assay [2] (setting [6]), 6300 nM; in assay [3] (setting [7]) it was 460 nM; in assay [4] (setting [8]), over 10000 nM.

Regarding `Cn1cc(-c2cc3c(N4CC5CCC(C4)N5C4CC5(COC5)C4)ccnn3c2)cn1` [Example 33, 4-(8-(2-oxaspiro[3.3]heptan-6-yl)-3,8-diazabicyclo[3.2.1]octan-3-yl)-6-(1-methyl-1H-pyrazol-4-yl)pyrrolo[1,2-b]pyridazine], the IC50 is 1350 nM in assay [1], 740 nM in assay [2], 42.5 nM in assay [3] and 6200 nM in assay [4].

Regarding `Cn1cc(-c2cc3c(N4CC5CCC(C4)N5[C@H]4C[C@](C)(C#N)C4)ccnn3c2)cn1` [Example 34, (1r,3r)-1-methyl-3-(3-(6-(1-methyl-1H-pyrazol-4-yl)pyrrolo[1,2-b]pyridazin-4-yl)-3,8-diazabicyclo[3.2.1]octan-8-yl)cyclobutane-1-carbonitrile], the IC50 in assay [1] (setting [5]) was 720 nM; in assay [2] (setting [6]), 295 nM; in assay [3] (setting [7]) it was 23 nM; in assay [4] (setting [8]), 2550 nM.

Consider `Cn1cc(-c2cc3c(N4CC5CCC(C4)N5[C@H]4C[C@@](C)(C#N)C4)ccnn3c2)cn1` [Example 35, (1s,3s)-1-methyl-3-(3-(6-(1-methyl-1H-pyrazol-4-yl)pyrrolo[1,2-b]pyridazin-4-yl)-3,8-diazabicyclo[3.2.1]octan-8-yl)cyclobutane-1-carbonitrile], for which the IC50 in assay [1] (setting [5]) was found to be 89 nM; in assay [2] (setting [6]), 31.5 nM; in assay [3] (setting [7]) it was 4.7 nM; in assay [4] (setting [8]), 190 nM.

Regarding `Cn1cc(-c2cc3c(N4CC5CCC(C4)N5[C@H]4C[C@@H](S(C)(=O)=O)C4)ccnn3c2)cn1` [Example 36, 6-(1-methyl-1H-pyrazol-4-yl)-4-(8-((1s,3s)-3-(methylsulfonyl)cyclobutyl)-3,8-diazabicyclo[3.2.1]octan-3-yl)pyrrolo[1,2-b]pyridazine], the IC50 in assay [1] amounted to 435 nM; in assay [2], 240 nM; in assay [3], 50.5 nM; in assay [4], 1700 nM.

Turning to `Cn1cc(-c2cc3c(N4CC5CCC(C4)N5[C@H]4C[C@H](S(C)(=O)=O)C4)ccnn3c2)cn1` [Example 37, 6-(1-methyl-1H-pyrazol-4-yl)-4-(8-((1r,3r)-3-(methylsulfonyl)cyclobutyl)-3,8-diazabicyclo[3.2.1]octan-3-yl)pyrrolo[1,2-b]pyridazine], the half-maximal inhibitory concentration (IC50) was 4300 nM in assay [1], 1450 nM in assay [2], 310 nM in assay [3] and over 10000 nM in assay [4].

As for `COCC[C@]1(C#N)C[C@H](N2C3CCC2CN(c2ccnn4cc(-c5cnn(C)c5)cc24)C3)C1` [Example 38, (1r,3r)-1-(2-methoxyethyl)-3-(3-(6-(1-methyl-1H-pyrazol-4-yl)pyrrolo[1,2-b]pyridazin-4-yl)-3,8-diazabicyclo[3.2.1]octan-8-yl)cyclobutane-1-carbonitrile], the IC50 in assay [1] (setting [5]) turned out to be 1400 nM; in assay [2] (setting [6]), 1100 nM; in assay [3] (setting [7]), 185 nM; in assay [4] (setting [8]) it was 7300 nM.

In the case of `COCC[C@]1(C#N)C[C@@H](N2C3CCC2CN(c2ccnn4cc(-c5cnn(C)c5)cc24)C3)C1` [Example 39, (1s,3s)-1-(2-methoxyethyl)-3-(3-(6-(1-methyl-1H-pyrazol-4-yl)pyrrolo[1,2-b]pyridazin-4-yl)-3,8-diazabicyclo[3.2.1]octan-8-yl)cyclobutane-1-carbonitrile], the IC50 in assay [1] (setting [5]) turned out to be 88 nM; in assay [2] (setting [6]) it was 54 nM; in assay [3] (setting [7]) it was 6.95 nM; in assay [4] (setting [8]), 460 nM.

With `COC[C@]1(C#N)C[C@H](N2C3CCC2CN(c2ccnn4cc(-c5cnn(C)c5)cc24)C3)C1` [Example 42, (1s,3s)-1-(methoxymethyl)-3-(3-(6-(1-methyl-1H-pyrazol-4-yl)pyrrolo[1,2-b]pyridazin-4-yl)-3,8-diazabicyclo[3.2.1]octan-8-yl)cyclobutane-1-carbonitrile], the IC50 in assay [1] (setting [5]) is 675 nM; in assay [2] (setting [6]), 400 nM; in assay [3] (setting [7]), 100 nM; in assay [4] (setting [8]), 2400 nM.

`COC[C@]1(C#N)C[C@@H](N2C3CCC2CN(c2ccnn4cc(-c5cnn(C)c5)cc24)C3)C1` [Example 43, (1r,3r)-1-(methoxymethyl)-3-(3-(6-(1-methyl-1H-pyrazol-4-yl)pyrrolo[1,2-b]pyridazin-4-yl)-3,8-diazabicyclo[3.2.1]octan-8-yl)cyclobutane-1-carbonitrile]: the IC50 is 73 nM in assay [1] (setting [5]), 39 nM in assay [2] (setting [6]), 3.7 nM in assay [3] (setting [7]) and 260 nM in assay [4] (setting [8]).

Consider `Cn1cc(-c2cc3c(N4CC5CCC(C4)N5[C@H]4C[C@@H](CC#N)C4)ccnn3c2)cn1` [Example 44, 2-((1s,3s)-3-(3-(6-(1-methyl-1H-pyrazol-4-yl)pyrrolo[1,2-b]pyridazin-4-yl)-3,8-diazabicyclo[3.2.1]octan-8-yl)cyclobutyl)acetonitrile], for which the IC50 came to 1700 nM in assay [1] (setting [5]), 900 nM in assay [2] (setting [6]), 82 nM in assay [3] (setting [7]) and 3550 nM in assay [4] (setting [8]).

On to `Cn1cc(-c2cc3c(N4CC5CCC(C4)N5[C@H]4C[C@H](CC#N)C4)ccnn3c2)cn1` [Example 45, 2-((1r,3r)-3-(3-(6-(1-methyl-1H-pyrazol-4-yl)pyrrolo[1,2-b]pyridazin-4-yl)-3,8-diazabicyclo[3.2.1]octan-8-yl)cyclobutyl)acetonitrile], for which the IC50 in assay [1] (setting [5]) worked out at 2400 nM; in assay [2] (setting [6]) it was 2700 nM; in assay [3] (setting [7]), 195 nM; in assay [4] (setting [8]), 9400 nM.

Regarding `Cn1cc(-c2cc3c(N4CC5CCC(C4)N5C4CC(F)(F)C4)ccnn3c2)cn1` [Example 52, 4-(8-(3,3-difluorocyclobutyl)-3,8-diazabicyclo[3.2.1]octan-3-yl)-6-(1-methyl-1H-pyrazol-4-yl)pyrrolo[1,2-b]pyridazine], the IC50 amounted to 57.2 nM in assay [1] (setting [5]), 35 nM in assay [2] (setting [6]), 1.9 nM in assay [3] (setting [7]) and 574 nM in assay [4] (setting [8]).

As for `COc1cc(-c2cc3c(N4CC5CCC(C4)N5C4COC4)ccnn3c2)cnn1` [Example 53, 6-(6-methoxypyridazin-4-yl)-4-(8-(oxetan-3-yl)-3,8-diazabicyclo[3.2.1]octan-3-yl)pyrrolo[1,2-b]pyridazine], the IC50 in assay [1] (setting [5]) is 4200 nM; in assay [2] (setting [6]), 5700 nM; in assay [3] (setting [7]), 715 nM; in assay [4] (setting [8]), over 10000 nM.

As to `COc1cc(-c2cc3c(N4CC5CCC(C4)N5C4CC(C#N)C4)ccnn3c2)cnn1` (stereo not drawn) [Example 54, 3-(3-(6-(6-methoxypyridazin-4-yl)pyrrolo[1,2-b]pyridazin-4-y1)-3,8-diazabicyclo[3.2.1]octan-8-yl)cyclobutane-1-carbonitrile], the IC50 in assay [1] (setting [5]) stood at 420 nM; in assay [2] (setting [6]), 305 nM; in assay [3] (setting [7]), 72 nM; in assay [4] (setting [8]), 1600 nM.

As to `N#CC1CC(N2C3CCC2CN(c2ccnn4cc(-c5ccnnc5)cc24)C3)C1` (stereo not drawn) [Example 55, 3-(3-(6-(pyridazin-4-yl)pyrrolo[1,2-b]pyridazin-4-y1)-3,8-diazabicyclo[3.2.1]octan-8-yl)cyclobutane-1-carbonitrile], the IC50 came out at 130 nM in assay [1], 80.5 nM in assay [2], 11.5 nM in assay [3] and 625 nM in assay [4].

With `c1cc(-c2cc3c(N4CC5CCC(C4)N5C4COC4)ccnn3c2)cnn1` [Example 56, 4-(8-(oxetan-3-yl)-3,8-diazabicyclo[3.2.1]octan-3-yl)-6-(pyridazin-4-yl)pyrrolo[1,2-b]pyridazine], the IC50 was 820 nM in assay [1] (setting [5]), 950 nM in assay [2] (setting [6]), 90 nM in assay [3] (setting [7]) and over 10000 nM in assay [4] (setting [8]).

The record behind these values is patent US20250387400A1, “TYK2 INHIBITORS” (BIOGEN MA INC., priority 2022, published 2025).
